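Dose response: 5 concentrations. Exposure: 48 h. Format: 96-well plates. Endpoint: linear interpolation; highest concentration if not reached. The concentration for full growth arrest is given as TGI.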

What all share (assay): NCI tumour cell line growth inhibition, 48 h
Assay [1] relates to MOLT-4 leukemia.
In assay [2] the test system is SF-268 CNS.
Assay [3] deals with RPMI-8226 leukemia.
Assay [4] has as its system T-47D breast.
Assay [5] has as its system HCT-116 colon.
Assay [6] relates to SW-620 colon.
In assay [7] the test system is SF-539 CNS.
In assay [8] the test system is NCI-H226 lung.
Assay [9] relates to IGROV1 ovarian.
The subject of assay [10] is OVCAR-4 ovarian.

`Cc1ccc(Nc2nc(=S)[nH]c3[nH]ncc23)cc1`: the TGI in assay [1], in assay [2], in assay [3], in assay [4], in [5] and in assay [6] was greater than 100 µM throughout. Moreover, the TGI in assay [7], in [8], in [9] and in assay [10] was greater than 100 µM throughout.

Turning to `O=C(c1ccccc1)c1ccc(C(c2c(O)c3ccccc3oc2=O)c2c(O)c3ccccc3oc2=O)cc1`, the TGI in assay [1] was 53.9 µM; in assay [2] it was 64.7 µM; in assay [3] it was 60.9 µM; in assay [4] it was greater than 100 µM; in assay [5], greater than 80.2 µM; in assay [6], greater than 100 µM. Moreover, the TGI in assay [7] was greater than 100 µM; in assay [8], 55 µM; in assay [9], greater than 60.9 µM; in [10], 82.9 µM.

As for `C=C(O)c1ccccc1C#Cc1ccccc1C(=O)OC`, the TGI in [1], in assay [2], in assay [3], in assay [4], in [5] and in [6] was greater than 10 µM in each case. Further, the TGI in [7], in [8], in assay [9] and in assay [10] was greater than 10 µM throughout.

For `CC/C(=N\NC(=O)c1cccnc1)c1ccc2c(c1)OCCO2`, the TGI in [1], in assay [2], in assay [3], in assay [4], in assay [5] and in [6] was greater than 100 µM in each case. Further, the TGI in [7], in [8], in [9] and in assay [10] was greater than 100 µM in each case.

Consider `CCC1(C)C=Cc2c(cc(OC)c3c(=O)c4ccccc4n(C)c23)O1` (centres undefined), for which the TGI in assay [1], in assay [2], in [3], in [4], in [5] and in assay [6] was greater than 10 µM in each case. In addition, the TGI in assay [7], in assay [8], in [9] and in assay [10] was greater than 10 µM throughout.

On to `COc1c2c(c(OC)c3c1c(=O)c1ccccc1n3C)OCO2`, for which the TGI in [1] is greater than 31.6 µM; in [2], greater than 100 µM; in [3], greater than 100 µM; in [4], greater than 100 µM; in [5], greater than 91.6 µM; in [6] it was greater than 100 µM. Besides, the TGI in assay [7] is greater than 90.7 µM; in [8] it was greater than 100 µM; in assay [9], greater than 100 µM; in assay [10], greater than 100 µM.

In the case of `CCOC(=O)c1nc2cc(N3CCOCC3)c(F)cc2[nH]c1=O`, the TGI in assay [1], in [2], in assay [3], in assay [4], in [5] and in assay [6] was greater than 100 µM throughout. Besides, the TGI in assay [7], in assay [8], in assay [9] and in [10] was greater than 100 µM throughout.

Regarding `CNc1ncnc(Sc2nc(N)nc3nc[nH]c23)c1[N+](=O)[O-]`, the TGI in [1] is 4.77 µM; in [2], greater than 36.5 µM; in assay [3] it was 1.79 µM; in [4] it was 16.8 µM; in [5], 11.9 µM; in assay [6] it was 20.6 µM. Moreover, the TGI in assay [7] was 28.9 µM; in assay [8], greater than 100 µM; in assay [9], 22.1 µM; in assay [10], 18.7 µM.

Take `CCCC1NC(=O)C(CC(C)C)NC(=O)c2cccc(n2)C(=O)NC(CC(C)C)C(=O)NC(CCC)C(=O)NC(C(=O)OC)CCCCNC1=O` (centres undefined): the TGI was 44.8 µM in assay [1]; greater than 100 µM in assay [2]; 32 µM in assay [3]; greater than 100 µM in assay [4]; greater than 100 µM in [5]; greater than 100 µM in assay [6]. Besides, the TGI in assay [7] is 45.1 µM; in [8], 71.4 µM; in assay [9], greater than 100 µM; in assay [10], greater than 100 µM.

As for `CCOC(=O)c1cc2cc(N(C(C)=O)C(C)=O)ccc2s1`, the TGI in [1] is 51 µM; in assay [2], 80.6 µM; in assay [3], 45.3 µM; in [4] it was 81.3 µM; in assay [5], greater than 100 µM; in assay [6], greater than 100 µM. The TGI in assay [7] was 92.3 µM; in assay [8] it was 47.8 µM; in assay [9] it was greater than 100 µM; in assay [10], greater than 100 µM.

`CN(C1=NCCO1)c1cccc2ccccc12`: the TGI in [1], in assay [2], in assay [3], in assay [4], in assay [5] and in [6] was greater than 10 µM each time. Besides, the TGI in assay [7], in [8], in assay [9] and in assay [10] was greater than 10 µM in each case.

Regarding `CCOP(=O)(OCC)C(NC(=O)OCC(Cl)(Cl)Cl)n1nnc(C(=O)OC)c1C(=O)OC` (centres undefined), the TGI in [1], in assay [2], in assay [3], in assay [4], in assay [5] and in assay [6] was greater than 100 µM in each case. For the same compound, the TGI in assay [7], in [8], in assay [9] and in [10] was greater than 100 µM in each case.

Turning to `Clc1ccc(N=C/C=C/Nc2ccc(Cl)cn2)nc1`, the TGI in assay [1] was determined as 19.4 µM; in [2], 30.6 µM; in [3], 37.1 µM; in [4], 40.9 µM; in assay [5], 25 µM; in assay [6] it was 16.9 µM. In addition, the TGI in assay [7] stood at 31.3 µM; in [8], 31.2 µM; in assay [9], 28.9 µM; in [10], 25.7 µM.

With `CNC(=S)/C(=N\Nc1nc[nH]c1C(N)=O)C(N)=S`, the TGI in assay [2] was greater than 54.2 µM; in [3], 55.7 µM; in assay [4], greater than 89.3 µM; in [5] it was greater than 100 µM; in [6] it was greater than 92 µM; in assay [7] it was greater than 81.3 µM. Besides, the TGI in assay [8] was greater than 33.9 µM; in [9], greater than 61 µM; in assay [10] it was greater than 100 µM.

These data come from PubChem BioAssay (NCI).
